# Test results published in patent US6984659B2, “2-pyrrolidinone derivatives substituted at position 4 for reducing the extracellular glutamate level” (priority 1997, dated 2006).
# Entries after “also recorded” stand apart in the source; their conditions may differ. Structures can show the parent of a compound that is named as a salt.
# Tests used:
# [1] = test system: ischemia-induced [^3H]-Glu release; test: in vitro ischemia model: ischemia-induced [^3H]-Glu release from [^3H]-Gln-loaded hippocampal slices; type: cell-based, rat
# Protocol: Rat hippocampus slices 350 μm thick were incubated in 3 ml of medium at 37° C. for 60 minutes. The medium contained 2 μM [^3H]-Gln to label the endogenous Gln pool. The slices then synthesized Glu. The slices were washed and then exposed to superfusion with a buffer for 50 minutes. At 5-minute intervals, [^3H]-Glu was extracted by anion exchange chromatography from a total of 15 superfusion samples and was measured by liquid scintillation counting. The fractional rates of [^3H]-Glu release were calculated from the [^3H]-Glu extracted from the superfusion samples and from the tissue slices after the superfusion.
# The model of endogenously produced [^3H]-Glu was likewise used to generate ischemic conditions in vitro. To make a slice “quasi ischemic”, oxygen and glucose were replaced by nitrogen and sucrose during the superfusion. Sucrose was used in place of […] glucose in order to maintain the osmolarity of the superfusion fluid. It is known that sucrose cannot be cleaved in vitro to glucose and fructose. Unlike the tests in which the [^3H]-Glu release was induced electrically, and in order to simulate an ischemia as well as possible, the [^3H]-Glu release was carried out during the incubation and superfusion at 37° C.
# Slices of 350 μm thickness were incubated at 37° C. for 60 min in 3 ml medium containing 2 μM [^3H]-Gln in order to label endogenous Gln pools. These slices subsequently were synthesizing Glu. The slices were washed and then superfused for 50 min with buffer. [^3H]-Glu was extracted from 15 5-min-superfusion samples and from the slices by anion-exchange chromatography and measured by liquid scintillation counting. Fractional rates of [^3H]-Glu release were calculated from extracted [^3H]-Glu in the superfusion samples and in the tissue slices obtained after superfusion.
# To reproduce in vitro ischemic conditions the model of endogenously formed [^3H]-Glu was also used. To make a slice “quasi-ischemic”, oxygen was replaced by nitrogen and glucose was replaced by sucrose during superfusion. Sucrose was used instead of glucose in order to maintain the osmolarity of the superfusion fluid without being cleaved into glucose and fructose in vitro. At variance to the experiments on electrically evoked [^3H]-Glu release and in order to mimic ischemia as close as possible the experiments on ischemia-induced [^3H]-Glu release were performed at 37° C. throughout incubation and superfusion.
# To assess the potency of glibenclamide concentration-inhibition curves of GBP-L on ischemia-induced [^3H]-Glu efflux were obtained in the absence and presence of 0.1 μM glibenclamide (see Jehle et al. 2000).
# [2] = test system: electrically evoked release of Glu; test: electrically evoked [^3H]-Glu release from [^3H]-Gln-loaded hippocampus slices; type: cell-based, rat
# [3] = test system: mitochondrial KATP channels; details: for comparison; cited from earlier work
# [4] = test system: potassium-evoked release of [^3H]-noradrenaline; details: cited from earlier work
smiles,measurement,setting,value
"O=C(O)[C@@H]1CN[C@@H](C(=O)O)C1 (relative stereo) [PDC, L-trans-pyrrolidine-2,4-dicarboxylate]",response to the ischemia ([^3H]-Glu release),[1]; 100 μM,noticeably reduced; also recorded: diminishes the response to ischemia markedly
"NC1=N[C@H](O)[C@H]2[C@H]3O[C@]4(O)O[C@@H]([C@@H](O)[C@@]2(N1)[C@@H]4O)[C@]3(O)CO [TTX, tetrodotoxin, reference compound]",electrically evoked release of Glu (in words),[2],partly inhibited; also recorded: widely inhibited
CC1=NS(=O)(=O)c2cc(Cl)ccc2N1 [diazoxide],IC50,[3],50 µM
COc1ccc(Cl)cc1C(=O)NCCc1ccc(S(=O)(=O)NC(=O)NC2CCCCC2)cc1 [glibenclamide],pA2 value,[1]; glibenclamide 0.1 μM against GBP-L concentration-response curve,8.28
same,influence on the effect of GBP-L on ischemia-induced [^3H]-Glu release,[1]; glibenclamide 1 μM,completely abolished
Nc1cc(N2CCCCC2)nc(N)[n+]1OS(=O)(=O)[O-] [minoxidil sulfate],ischemia-induced [^3H]-Glu efflux (in words),[1]; 10 μM,significantly reduced
CC(C)C[C@H](CN)CC(=O)O [pregabalin],potassium-evoked release of [^3H]-noradrenaline (in words),[4],inhibitory effects
